# Measurements from US20140259191A1, “FISH ANESTHETIC AND METHOD” (AQUA-MOR TECHNOLOGIES LTD., priority 2011, published 2014).
# Test system: common carp
# Experiment: Five-hour sedation of common carp, linalool versus 2-phenoxyethanol
# Format: in vivo
# Conditions: linalool 40 ppm, 2-PE 200 ppm; for Number of fish exhibiting loss of upright position: 26° C.
# Description: 2-Phenoxyethanol (2-PE) is used to sedate fish in vaccinations procedures for relatively long periods of time (3 hours). 35 common carp were placed in each of two 60-liter tanks containing water at 26° C. Into one tank was added linalool (in a formulation as described in Example 28) to a concentration of 40 ppm; into the other tank was added 2-PE to a concentration of 200 ppm. Sedation of fish was determined by observation of loss of upright position, operculum movement and response to stimulus (handling). Total exposure time was five hours, at the end of which the fish were transferred 60-liter recovery tanks containing untreated water.
smiles,measurement,setting,value
"OCCOc1ccccc1 [2-phenoxyethanol, 2-Phenoxyethanol, reference compound]",Number of fish exhibiting loss of upright position,"35 common carp per tank, time 10:30 (start), aeration",0
same,Number of fish exhibiting loss of upright position,"35 common carp per tank, time 11:00 (start 10:30), no aeration",1
same,Number of fish exhibiting loss of upright position,"35 common carp per tank, time 11:40 (start 10:30), no aeration",2
same,Number of fish exhibiting loss of upright position,"35 common carp per tank, time 12:35 (start 10:30), no aeration",2
same,Number of fish exhibiting loss of upright position,"35 common carp per tank, time 13:35 (start 10:30), no aeration",2
same,Number of fish exhibiting loss of upright position,"35 common carp per tank, time 14:30 (start 10:30), aeration",2
same,Number of fish exhibiting loss of upright position,"35 common carp per tank, time 15:30 (start 10:30), aeration",None
same,survival at transfer to recovery tank,"35 common carp per tank, after five hours exposure",All alive
same,reflex response over the 5 hours of exposure,common carp,reduced substantially from the beginning of the trial and increased with the passage of time until the end of the trial
same,sedative effect between 3 and 5 hours of exposure,common carp,reduced
same,recovery after placement in a recovery tank,"common carp, after five hours exposure",recovered quickly in few minutes and did not show signs of stress
same,response to external stimulation during the first 3 hours,"common carp, sedation levels enabled handling",did not respond to external stimulation
